# Biological target: Sequestosome-1 (Homo sapiens, UniProt Q13501)
# Experiment: Inhibition of biotin-labeled Halo/His-tagged p62 (unknown origin) incubated for 30 mins by AlphaLISA competition assay
# Chain of Sequestosome-1 (Q13501 whole entry): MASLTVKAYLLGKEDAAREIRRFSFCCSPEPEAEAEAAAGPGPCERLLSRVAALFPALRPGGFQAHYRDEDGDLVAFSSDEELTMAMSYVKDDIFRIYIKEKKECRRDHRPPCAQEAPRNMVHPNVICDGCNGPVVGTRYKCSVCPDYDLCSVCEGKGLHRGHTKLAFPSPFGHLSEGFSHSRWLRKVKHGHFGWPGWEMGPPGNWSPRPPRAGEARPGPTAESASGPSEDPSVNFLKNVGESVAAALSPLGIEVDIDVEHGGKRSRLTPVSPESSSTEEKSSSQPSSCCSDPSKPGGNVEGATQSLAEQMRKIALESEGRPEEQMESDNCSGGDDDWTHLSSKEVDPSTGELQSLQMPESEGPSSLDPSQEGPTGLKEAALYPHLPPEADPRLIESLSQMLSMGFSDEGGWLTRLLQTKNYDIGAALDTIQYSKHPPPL
row,Compound,IC50 [nM]
1,CCc1cc2c(cc1N1CCN(C(=O)CCCN3C[C@H](NC(=O)[C@@H](N)CCCc4cccnc4N)C(C)(C)C3)CC1)C(C)(C)C1Nc3cc(C#N)ccc3C1C2=O (stereo partly specified),≤ 1500
2,CCc1cc2c(cc1N1CCN(C(=O)CCCN3CC[C@@H](NC(=O)[C@@H](N)CCCn4ccnc4N)C3)CC1)C(C)(C)C1Nc3cc(C#N)ccc3C1C2=O (stereo partly specified),≤ 1500
3,CCc1cc2c(cc1N1CCN(C(=O)CCCN3C[C@H](NC(=O)[C@@H](N)CCCc4cncnc4N)C(C)(C)C3)CC1)C(C)(C)C1Nc3cc(C#N)ccc3C1C2=O (stereo partly specified),≤ 1500

# Other lines, results leading:
row,IC50 [nM],Compound
1,≤ 1500,CCc1cc2c(cc1N1CCN(C(=O)CCCN3C[C@H](NC(=O)[C@@H](N)CCCn4ccnc4N)C(C)(C)C3)CC1)C(C)(C)C1Nc3cc(C#N)ccc3C1C2=O (stereo partly specified)
2,≤ 1500,CCc1cc2c(cc1N1CCN(C(=O)CCCN3CCC(C)(C)C(NC(=O)[C@@H](N)CCCn4ccnc4N)C3)CC1)C(C)(C)C1Nc3cc(C#N)ccc3C1C2=O (stereo partly specified)
3,≤ 1500,CCc1cc2c(cc1N1CCN(C(=O)CCCN3C[C@H](NC(=O)[C@@H](N)CCCn4ccnc4N)C4(CC4)C3)CC1)C(C)(C)C1Nc3cc(C#N)ccc3C1C2=O (stereo partly specified)

# From ChEMBL document CHEMBL6153166, “Innovative Protein Degraders for Targeted Cancer and Viral Therapy” (ACS Med Chem Lett, 2025)
